Reference: patent US8309299B2, “Combination therapy and method for assessing resistance to treatment” (Hoffmann-La Roche Inc., priority 2010, dated 2012)

How the values were obtained:
[1] = tested on: MiaPaCa-2 (pancreatic) xenograft; assay: in vivo activity in MiaPaCa-2 xenograft model; design: species or system human; conditions: MiaPaCa-2 (pancreatic) xenograft in nude mice; 10 mg/kg daily po; 21 days following commencement of treatment
Description: (§1) Female nu/nu (nude) mice obtained from Charles River Laboratories (Wilmington, Mass.) or female SCID-beige mice (Taconic, Germantown, N.Y.) were used (10 mice/group) when they were approximately 8 to 14 weeks old and weighed approximately 23 to 25 grams. All animal experiments were performed in accordance with protocols approved by the Roche Animal Care and Use Committee (RACUC).
(§2) The human cancer cell lines LOVO, BxPC3, HCT-116, A549, AsPC-1, MiaPaCa-2, and Calu-6 were purchased from the American Type Culture Collection. The H460a cell line was a gift from Dr. Jack Roth (M. D. Anderson Medical Center).
(§3) For xenograft implantation, cells were harvested using 0.05% trypsin, washed and centrifuged in culture medium, and resuspended in either a 1:1 mixture of phosphate buffered saline (PBS) and Matrigel (BxPC-3) or PBS alone (A549, H460a, LOVO, Calu-6, HCT-116, MiaPaca-2, and AsPC-1) at a concentration of 1.5-5×10^7 cells per mL. […]
(§4) Tumor measurements and mouse weights were taken twice per week. Statistical analysis was determined by Mann-Whitney Rank Sum Test, 1-way ANOVA, and post hoc Bonferroni t-test (SigmaStat, version 2.0, Jandel Scientific, San Francisco, Calif.). […]
(§5) Tumor growth inhibition (TGI %) was measured 21 days following the commencement of the treatment.

Calu-6 (NSCLC) xenograft = assay: in vivo activity in Calu-6 xenograft model; design: species or system human; conditions: Calu-6 (NSCLC) xenograft in nude mice; 60 mg/kg daily every other week for 4 weeks (7+/7- x 2 cycles) po; 21 days following commencement of treatment
Description: as §1, §2, §3, §4, §5

LOX (melanoma) xenograft = assay: in vivo activity in LOX xenograft model; design: species or system human; conditions: LOX xenograft in nude mice; 10 mg/kg once daily for 11 days
Description: (§6) The human cancer cell lines U87MG and LOX were purchased from the American Type Culture Collection. Xenografts were implanted in female nu/nu (nude) mice obtained from Charles River Laboratories (Wilmington, Mass.) (10 mice/group) when they were approximately 8 to 14 weeks old and weighed approximately 23 to 25 grams. All animal experiments were performed in accordance with protocols approved by the Roche Animal Care and Use Committee (RACUC). For xenograft implantation, cells were harvested using 0.05% trypsin, washed and centrifuged in culture medium, and resuspended in either a 1:1 mixture of phosphate buffered saline (PBS) and Matrigel (U87MG) or PBS alone (LOX) at a concentration of 1.5-5×10^7 cells per mL. A volume of 0.2 mL cell suspension (5×10^6 cells for U87MG, 2×10^6 cells for LOX) per mouse was implanted subcutaneously in the right flank. Tumors were allowed to grow for 8 to 26 days post implant when mean volume reached ˜100-150 mm^3, after which animals were randomized into treatment groups: U87MG xenograft mice receiving vehicle (Klucel and Tween) once daily, U87MG xenograft mice receiving Compound I at 10 mg/kg once daily for 21 days, LOX xenograft mice receiving vehicle (Klucel and Tween) once daily, and LOX xenograft mice receiving Compound I at 10 mg/kg once daily for 11 days.

[2] = tested on: 1:1 mixture of A549 overexpressing IL6 or IL8 (xenograft); assay: in vivo activity in xenograft of 1:1 mixture of IL6- and IL8-overexpressing A549 cells; design: species or system human; conditions: Example 5; tumors from 1:1 mixture of A549 overexpressing IL6 or IL8; 10 mg/kg once daily; after 21 days
Source text: (§7) IL6 and IL8 lentiviruses were made using IL6 and IL8 plasmids (available from Genecopoeia, Rockville, Md., USA), respectively. A549 cells were divided into three groups with one group receiving a vector control, one group being infected with the IL6 lentivirus and the third group being infected with the IL8 lentivirus. The later two groups formed cell pools with stable expression of exogenous IL6 and IL8, respectively.
A portion of the IL6 overexpressing A549 cells and the IL8 overexpressing A549 cells were then combined to form a fourth group containing a 1:1 mixture of such cells.
(§8) Cells from the aforementioned four groups and parental A549 and H460a cells were used to make xenograft models using the procedure described in Example 1. […]

[3] = tested on: genes associated with angiogenesis; conditions: Luistro et al., Cancer Research 69:7672-80 (2009), cited from earlier work
[4] = tested on: A549 cells overexpressing IL6 (xenograft); assay: in vivo activity in IL6-overexpressing A549 xenograft model; design: species or system human; conditions: Example 5, 10 mg/kg once daily, after 21 days
Source text: as §7, §8

[5] = tested on: IL8-knockdown H460a xenograft; assay: in vivo activity in IL8-knockdown H460a xenograft model; design: species or system human; conditions: Example 6; IL8-knockdown H460a tumors; 10 mg/kg once daily for 21 days
Source text: Lentiviruses were made using pLKO.1-based anti-IL8 shRNA (purchased from Open Biosystems) and used to stably knockdown IL8 expression in H460a cells. […] IL8-knockdown H460a cells, however, still had more than 2-fold higher IL8 levels compared to A549 cells.
Parental H460a cells and IL8-knockdown H460a cells were then implanted as xenografts in mice using the procedures described in Example 1. The mice were then randomized into different treatment groups (10 mice/group): H460a xenograft mice receiving vehicle once daily, H460a xenograft mice receiving Compound I at 10 mg/kg once daily, IL8-knockdown H460a xenograft mice receiving vehicle once daily, and IL8-knockdown H460a xenograft mice receiving Compound I at 10 mg/kg once daily.

[6] = tested on: BxPC3 (pancreatic) xenograft; assay: in vivo activity in BxPC3 xenograft model; design: species or system human; conditions: BxPC3 (pancreatic) xenograft in SCID-beige mice; 10 mg/kg daily po; 21 days following commencement of treatment
Description: as §1, §2, §3, §4, §5

[7] = tested on: HCT-116 (colon) xenograft; assay: in vivo activity in HCT-116 xenograft model; design: species or system human; conditions: HCT-116 (colon) xenograft in nude mice; 10 mg/kg daily po; 21 days following commencement of treatment
Description: as §1, §2, §3, §4, §5

Hes1 mRNA = assay: downregulation of Hes1 mRNA following in vitro treatment (Notch signaling blockage); format: cell-based, human
Source text: Expression of IL6 and IL8 was then quantified in the BxPC3, HCT-116, A549, AsPC-1, MiaPaCa-2, and Calu-6 cell lines by measuring the level of mRNA using qRT-PCR. RNA isolation, and reverse transcription-PCR (RT-PCR) were done using standard laboratory techniques. The catalogue numbers for each probe set were Hes1 (Hs00172878_ml), ACTB (4333762F), IL6 (Hs00174131_ml), IL8 (Hs00174103_ml) and 18S (4319413E).

[8] = tested on: U87MG (glioblastoma) xenograft; assay: in vivo activity in U87MG xenograft model; design: species or system human; conditions: U87MG xenograft in nude mice; 10 mg/kg once daily for 21 days
Description: as §6

LOVO (colon) xenograft = assay: in vivo activity in LOVO xenograft model; design: species or system human; conditions: LOVO (colon) xenograft in nude mice; 10 mg/kg daily po; 21 days following commencement of treatment
Description: as §1, §2, §3, §4, §5

[9] = tested on: A549 cells overexpressing IL8 (xenograft); assay: in vivo activity in IL8-overexpressing A549 xenograft model; design: species or system human; conditions: Example 5, 10 mg/kg once daily, after 21 days
Source text: as §7, §8

A549 (NSCLC) xenograft = assay: in vivo activity in A549 xenograft model; design: species or system human
Description: as §1, §2, §3, §4
Tumor growth inhibition (TGI %) was measured 21 days following the commencement of the treatment. […]

[10] = tested on: AsPC-1 (pancreatic) xenograft; assay: in vivo activity in AsPC-1 xenograft model; design: species or system human; conditions: AsPC-1 (pancreatic) xenograft in nude mice; 10 mg/kg daily po; 21 days following commencement of treatment
Description: as §1, §2, §3, §4, §5

[11] = tested on: A549 vector control tumors; assay: in vivo activity in A549 vector control xenograft model; design: species or system human; conditions: Example 5, 10 mg/kg once daily, after 21 days
Source text: as §7, §8

H460a (NSCLC) xenograft = assay: in vivo activity in H460a xenograft model; design: species or system human
Description: as §1, §2
For xenograft implantation, cells were harvested using 0.05% trypsin, washed and centrifuged in culture medium, and resuspended in either a 1:1 mixture of phosphate buffered saline (PBS) and Matrigel (BxPC-3) or PBS alone (A549, H460a, LOVO, Calu-6, HCT-116, MiaPaca-2, and AsPC-1) at a concentration of 1.5-5×10^7 cells per mL. A volume of 0.2 mL cell suspension (7.5×10^6 cells for A549, 1×10^7 cells for H460a, 3×10^6 cells for Calu-6 and HCT116, 5×10^6 cells for BxPC3 and AsPC-1, 6×10^6 cells for MiaPaca-2, and 5×10^6 for LOVO) per mouse was implanted subcutaneously in the right flank. All xenograft models were implanted into nude mice with the exception of BxPC3, which was implanted into SCID-beige mice. Tumors were allowed to grow for 8 to 26 days post implant when mean volume reached ˜100-150 mm^3, after which animals were randomized into treatment groups.
Compound I (synthesized according to the procedure described in WO2005/023772) was formulated as a suspension in 1.0% Klucel in water with 0.2% Tween®-80 for oral (po) administration. Formulated compound and vehicle were prepared weekly and stored at 4° C. In the Calu-6 xenograft model, Compound I was dosed at 60 mg/kg daily every other week for 4 weeks (7+/7−×2 cycles). All other xenograft models were dosed with Compound I at 10 mg/kg daily.
Tumor measurements and mouse weights were taken twice per week. Statistical analysis was determined by Mann-Whitney Rank Sum Test, 1-way ANOVA, and post hoc Bonferroni t-test (SigmaStat, version 2.0, Jandel Scientific, San Francisco, Calif.). Differences between groups were considered significant when the probability value (p) was ≦0.05.
as §5, §8

[12] = tested on: H460a, A549 parental, A549 control, A549 IL6, A549 IL8 and 1:1 mixture xenograft models; assay: Taxol positive drug control across the xenograft models of Example 5; format: in vivo, human; conditions: 30 mg/kg, all xenograft models of FIG. 5
Source text: as §8

Compound CC(C)(C(=O)NCC(F)(F)C(F)(F)F)C(=O)N[C@@H]1C(=O)Nc2ccccc2-c2ccccc21 [Compound I, 2,2-dimethyl-N-((S)-6-oxo-6,7-dihydro-5H-dibenzo[b,d]azepin-7-yl)-N′-(2,2,3,3,3-pentafluoro-propyl)-malonamide] has a TGI % [1] of 53%, a TGI % (Calu-6 (NSCLC) xenograft) of 42% and a TGI (LOX (melanoma) xenograft) of 15%. For the same compound, the TGI [2] was 8%, the “change in the angiogenic gene profile” value ([3]; H460a xenograft) was “little change” and the “expression of genes associated with angiogenesis” value ([3]; treated xenografts) was “reduced expression”. The TGI [4] was 32%, the TGI [5] was 24% and the TGI % [6] was 82%. The TGI % [7] was 76%, the “downregulation of Hes1 mRNA” value (Hes1 mRNA; A549 overexpressing IL6) was “properly maintained” and the “downregulation of Hes1 mRNA” value (Hes1 mRNA; A549 overexpressing IL8) was “properly maintained”. The “downregulation of Hes1 mRNA” value (Hes1 mRNA; LOX cells) was “properly maintained”, the “downregulation of Hes1 mRNA” value (Hes1 mRNA; U87MG cells) was “properly maintained” and the TGI [8] was −17%. For the same compound, the TGI % (LOVO (colon) xenograft) was 83%, the TGI [9] was 45% and the TGI % (A549 (NSCLC) xenograft; A549 (NSCLC) xenograft in nude mice, 10 mg/kg daily po, 21 days following commencement of treatment) was 70%. It also gave a TGI (A549 (NSCLC) xenograft; Example 5, parental A549 tumors, 10 mg/kg once daily, after 21 days) of 71%, a TGI % [10] of 58% and a TGI [11] of 61%. It also gave a TGI (H460a (NSCLC) xenograft; Example 5, H460a xenograft (high IL6 and IL8), 10 mg/kg once daily, after 21 days) of 9%, a TGI (H460a (NSCLC) xenograft; Example 6, parental H460a tumors, 10 mg/kg once daily for 21 days) of 5% and a TGI (H460a (NSCLC) xenograft; Example 7, H460a xenograft, Compound I 10 mg/kg once daily, anti-IL8 antibody 20 mg/kg twice weekly) of 10%. The TGI (H460a (NSCLC) xenograft; Example 8, H460a xenograft, Compound I 10 mg/kg once daily, anti-IL6 antibody 20 mg/kg twice weekly) was 43% and the TGI % (H460a (NSCLC) xenograft; H460a (NSCLC) xenograft in nude mice, 10 mg/kg daily po, 21 days following commencement of treatment (Example 1)) was 8%.
With CC(=O)O[C@H]1C(=O)[C@@]2(C)[C@H]([C@H](OC(=O)c3ccccc3)[C@]3(O)C[C@H](OC(=O)[C@H](O)[C@@H](NC(=O)c4ccccc4)c4ccccc4)C(C)=C1C3(C)C)[C@]1(OC(C)=O)CO[C@@H]1C[C@@H]2O [Taxol®] the “TGI (positive drug control)” value [12] was “consistent TGI across the various models”.
